Data on two compounds can be found in US20260297060A1, “COMPOUNDS FOR THE DEGRADATION OF MUTANT BRAF” (C4 THERAPEUTICS, INC., priority 2023, published 2026).

A short description of series [1]: Example 6 pharmacokinetics assay for efficacy study (plasma, liver). Format: in vivo, BALB/c nude mice. To be noted: mouse, po, p.o., QD × 21 days. The procedure:
For efficacy study, compounds were tested in the A375 human melanoma xenografts. Known BRAF inhibitors encorafenib, and dabrafenib were used as positive controls. Encorafenib and dabrafenib were administered to BALB/c nude mice bearing A375 tumors on PG-D1 and dosed PO daily (QD) for 3 weeks. Encorafenib was dosed at 35 mg/kg. Dabrafenib was dosed at 100 mg/kg. Compound 83, Compound 93, Compound 70, and Compound 54 were administered to BALB/c nude mice bearing A375 tumors on PG-DO and dosed PO twice per day (BID) for 3 weeks. Compound 83, Compound 93, Compound 70, and Compound 54 were dosed at 10 mg/kg.
The plasma samples were collected at predetermined time points for PK analysis. The mice were euthanized at predetermined time points post the treatment. The blood samples were collected into the 1.5 mL Eppendorf tubes containing 15 μL of 0.5 M EDTA-K2. And then the anticoagulant blood samples were centrifuged at 2,500 g at 4° C. for 15 minutes. The plasma samples were separated into 2 aliquots. The 1st was used for PK analysis, and the 2nd served as backup. The samples were stored at −80° C. before bioanalysis.
Liver samples were collected at predetermined time points for PK analysis. The left lobe of the liver was dissected out and split into 2 parts. The 1st part was used for PK analysis and the 2nd part served as the backup for the study. The samples were transferred into pre-labeled tubes and quickly froze in liquid nitrogen within 2 minutes after dissection. The samples were stored at −80° C. before bioanalysis.
For efficacy study, the harvested plasma and liver were processed for pharmacokinetics analysis by LC/MS/MS with a concentration range of 2.00-2000 ng/mL for Encorafenib and Dabrafenib in plasma, 0.20-200 ng/mL for Encorafenib and Dabrafenib in liver, 50.0-50000 ng/mL for compound 83 and compound 70 in plasma, 20.0-20000 ng/mL for Compound 93 and Compound 54 in plasma, 5.00-5000 ng/mL for compound 93, compound 83, compound 70 and compound 54 in liver.

Series [2] in a line: Pharmacokinetics after 21 days dosing in the efficacy study (plasma, tumor and brain concentrations; plasma AUC at steady state), Example 14. Format: in vivo, female BALB/c nude mice. The procedure:
Agents were tested in the A375 human melanoma xenografts. Compound 26 and Compound 141 were administered to BALB/c nude mice bearing A375 tumors from PG-DO and dosed via PO twice a day (BID) or third a day (TIP) or dosed P daily (QD) from PG-D. Dabrafenib was administered to BALB/c nude mice bearing A375 tumors from PG-D1 and dosed via P daily (QD). Compound 26 was dosed at 1.5 mg/kg (QD), 2 mg/kg (TID), 3 mg/kg (BID), 6 mg/kg (QD) and 10 mg/kg (BID) for 21 days. Compound 141 was dosed at 0.75 mg/kg (BID), 1 mg/kg (TID), 1.5 mg/kg (BID), 3 mg/kg (QD) and 5 mg/kg (BID) for 21 days. Dabrafenib was dosed at 100 mg/kg for 21 days. This study was non-GLP.
The plasma samples were collected at predetermined time points for PK analysis. For non-termination plasma collection: the blood samples were collected into the 1.5 mL Eppendorf tubes containing 3 μL of 0.5 M EDTA-K2. And then the anticoagulant blood samples were centrifuged at 2,500 g at 4° C. for 15 minutes. For termination plasma collection: the mice was euthanized at predetermined time points post the treatment, the blood samples were collected into the 1.5 mL Eppendorf tubes containing 15 μL of 0.5 M EDTA-K2. And then the anticoagulant blood samples were centrifuged at 2,500 g at 4° C. for 15 minutes. The plasma samples were separated into 2 aliquots. The 1st was used for PK analysis, and the 2nd was served as backup.
The tumor samples were collected at predetermined time points for PK and WB analysis. The tumor was dissected out and split into 3 parts. The 1st part was used for PK analysis, the 2nd part was used for WB analysis and the last one was used as backup for the study. The samples were transferred into pre-labeled tubes and quickly froze in liquid nitrogen within 2 minutes after dissection. The samples were stored at −80° C. before analysis.
The brain samples were collected at predetermined time points for PK and potential WB analysis. The brain was dissected out and split into 3 parts (left brain, right brain upper and right brain lower), the left brain was used for PK, the right brain upper was used for WB and the last one was used as the backup for the study. The samples were transferred into pre-labeled tubes and quickly froze in liquid nitrogen within 2 minutes after dissection. The samples were stored at −80° C. before analysis.
The harvested plasma and tumor samples were processed for pharmacokinetics analysis by LC-MS/MS with a concentration range of 1.00-1,000 ng/mL for dabrafenib in plasma and 0.0500-50 ng/mL in tumor and brain homogenate, 5.00-10,000 ng/mL for Compound 141 in plasma and 0.200~200 ng/ml in tumor and brain homogenate. 20.0~20,000 ng/mL for Compound 26 in plasma and 0.5~500 ng/mL for Compound 26 tumor and brain homogenate.
Dabrafenib, Compound 26 and Compound 141 in female BALB/c nude mice plasma (K2-EDTA), tumor and brain homogenate were analyzed by LC-MS/MS (Triple Quad 6500+ Low Mass). Verapamil (5 ng/mL) in acetonitrile: methanol (V: V=95:5) was used as the internal standard for Dabrafenib, Compound 26 and Compound 141 in plasma. Verapamil (0.5 ng/mL) in acetonitrile: methanol (V: V=95:5) was used as the internal standard for Dabrafenib, Compound 26 and Compound 141 in tumor and brain homogenate.
An aliquot of 10 μL unknown sample, calibration standard, quality control, dilute quality control, single blank and double blank samples were added to the 96-well plate. Each sample for Dabrafenib, Compound 26 and Compound 141 in plasma (except the double blank) was quenched with 200 μL IS respectively (double blank sample was quenched with 200 μL ACN: MeOH (V: V=95:5)); each sample for Dabrafenib, Compound 26 and Compound 141 in tumor and brain(except the double blank) was quenched with 100 μL IS respectively (double blank sample was quenched with 100 μL ACN: MeOH (V: V=95:5)); and then the mixture was vortex-mixed for 5 min at 800 rpm and centrifuged for 15 min at 3220 g (4000 rpm), 4° C. […]

Broadly, the AUC is concentration integrated over time.

Like-named read-outs stand apart in the source and are kept apart here.

For `CC(C)(C)c1nc(-c2cccc(NS(=O)(=O)c3c(F)cccc3F)c2F)c(-c2ccnc(N)n2)s1` [Dabrafenib, dabrafenib, reference compound], the concentration at 6 h in series [1] (liver, 100 mg/kg, read-out: Concentration in Liver (mean ± SEM)) was found to be 216 ± 30.8 ng/g; in series [1] (plasma, 100 mg/kg, read-out: Concentration in Plasma (mean ± SEM)), 86.1 ± 15.4 ng/mL. Also, in series [2] (100 mg/kg p.o. QD x 21 days, 24 h, BQL: below the lower limit of quantitation), the “Concentration in Brain” value is given as “BQL^a”. In addition, the concentration at 4 h was 3.59 ± 0.558 ng/g in series [2] (mouse, brain, po, 100 mg/kg p.o. QD x 21 days, mean ± SEM, read-out: Concentration in Brain); 54.4 ± 7.02 ng/mL in series [2] (mouse, plasma, po, 100 mg/kg p.o. QD x 21 days, mean ± SEM, read-out: Concentration in Plasma); 137 ± 7.51 ng/g in series [2] (mouse, tumor, po, 100 mg/kg p.o. QD x 21 days, mean ± SEM, read-out: Concentration in Tumor). Further, the concentration at 0.25 h in series [2] (mouse, plasma, po, 100 mg/kg p.o. QD x 21 days, 0.25 h, mean ± SEM) was determined as 38700 ± 2110 ng/mL. The compound also came in with a concentration at 0.5 h in series [2] (mouse, plasma, po, 100 mg/kg p.o. QD x 21 days, 0.5 h, mean ± SEM) of 25700 ± 5690 ng/mL. Also, in series [2] (mouse, plasma, po, 100 mg/kg p.o. QD x 21 days, 1 h, mean ± SEM), the concentration at 1 h was determined as 3270 ± 443 ng/mL. For the same compound, the concentration at 2 h in series [2] (mouse, plasma, po, 100 mg/kg p.o. QD x 21 days, 2 h, mean ± SEM) was determined as 444 ± 129 ng/mL. The compound also displayed a concentration at 8 h in series [2] (mouse, plasma, po, 100 mg/kg p.o. QD x 21 days, 8 h, mean ± SEM) of 55.4 ± 4.19 ng/mL. Moreover, the concentration at 10 h in series [2] (mouse, plasma, po, 100 mg/kg p.o. QD x 21 days, 10 h, mean ± SEM) stood at 24 ± 6.86 ng/mL. The concentration at 24 h is 2.27 ng/mL in series [2] (mouse, plasma, po, 100 mg/kg p.o. QD x 21 days, 24 h, read-out: Concentration in Plasma) and 1.43 ± 0.191 ng/g in series [2] (mouse, tumor, po, 100 mg/kg p.o. QD x 21 days, 24 h, mean ± SEM, read-out: Concentration in Tumor). In series [2] (mouse, plasma, po, 100 mg/kg p.o. QD × 21 days, read-out: Plasma AUC at steady state (Day 21), Average), the AUC turned out to be 18100 ng·h/mL.
On to `COC(=O)N[C@@H](C)CNc1nccc(-c2cn(C(C)C)nc2-c2cc(Cl)cc(NS(C)(=O)=O)c2F)n1` [Encorafenib, encorafenib, reference compound], for which the concentration at 6 h in series [1] (liver, 35 mg/kg, read-out: Concentration in Liver (mean ± SEM)) was determined as 481 ± 272 ng/g; in series [1] (plasma, 35 mg/kg, read-out: Concentration in Plasma (mean ± SEM)) it was 992 ± 559 ng/mL.
